# Test results from patent US12544391B2, “CD73 inhibitors” (ORIC Pharmaceuticals, Inc., priority 2019, dated 2026).
# pIC50: −log10 of the molar value.
# Molecular target: T1, CD73 (Homo sapiens, UniProt P21589)
# T1 sequence (P21589 27-549): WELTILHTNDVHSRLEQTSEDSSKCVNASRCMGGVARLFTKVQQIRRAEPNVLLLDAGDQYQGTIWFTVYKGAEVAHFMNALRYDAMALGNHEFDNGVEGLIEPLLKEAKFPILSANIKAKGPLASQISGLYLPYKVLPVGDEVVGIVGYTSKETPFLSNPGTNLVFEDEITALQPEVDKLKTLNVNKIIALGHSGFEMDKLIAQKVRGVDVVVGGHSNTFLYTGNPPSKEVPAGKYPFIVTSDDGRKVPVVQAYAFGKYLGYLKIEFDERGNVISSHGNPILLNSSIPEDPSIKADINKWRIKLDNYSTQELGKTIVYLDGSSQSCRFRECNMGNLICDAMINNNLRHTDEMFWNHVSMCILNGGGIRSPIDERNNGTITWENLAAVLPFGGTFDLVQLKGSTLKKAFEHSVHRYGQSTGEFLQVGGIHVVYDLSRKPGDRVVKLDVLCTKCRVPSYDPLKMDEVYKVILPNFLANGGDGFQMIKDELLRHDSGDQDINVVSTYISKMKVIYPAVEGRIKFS
# Assay: CD73 biochemical assay, Malachite Green detection of AMP hydrolysis
# Conditions: CD73 320 pM, AMP 15 μM, Malachite Green readout
# Description: Assay Reaction Conditions
# • Assay Volume: 70 μl • Reaction Volume: 50 μl • CD73: 0.3208 nM • AMP: 15 μM • Assay Buffer: 2 5 mM Tris-HCL, pH 7.4, 0.01% Brij-35, 0.01% BSA, 5 mM MgCl2 Assay Procedure:
# A clear 384 well plate was used in this assay.
# Made dose titration of testing compounds in assay buffer, 10 points ½ log titrations in duplicates starting at 100 μM. Total volume for each well was 25 μl, with CD73 then added to each well for a final concentration of 320 pM. The solution was then incubated at RT for 15 min. 25 μl of AMP was added to each well for a final concentration of 15 μM, and then incubated at rt for 10 min. 10 μl of Malachite Green Reagent A was then added and allowed to incubate at rt for 10 min. 10 μl of Malachite Green Reagent B was then added and allowed to incubate at rt for 45 min. The absorbance for each sample was read on an Envision plate reader using excitation filter: Cy5 […].
# The ability of the compounds disclosed herein to inhibit CD73 activity was quantified and the respective IC50 values were determined. Table 2 provides the biochemical IC50 values of compounds disclosed herein.
row,pIC50,SMILES
1,≥ 9.30,"COC[C@](COCC(=O)O)(OC[C@H]1O[C@@H](c2ccc3c(NC4CCCC4)nc(Cl)nn23)[C@H](O)[C@@H]1O)P(=O)(O)O [Example 25, 2-((S)-2-(((2R,3S,4R,5S)-5-(2-chloro-4-(cyclopentylamino)pyrrolo[2,1-f][1,2,4]triazin-7-yl)-3,4-dihydroxytetrahydrofuran-2-yl)methoxy)-3-methoxy-2-phosphonopropoxy)acetic acid]"
2,≥ 9.30,"CCOC(=O)COC[C@@](COC)(OC[C@H]1O[C@@H](c2ccc3c(NC4CCCC4)nc(Cl)nn23)[C@H](O)[C@@H]1O)P(=O)(O)O [Example 26, ((S)-2-(((2R,3S,4R,5S)-5-(2-chloro-4-(cyclopentylamino)pyrrolo[2,1-f][1,2,4]triazin-7-yl)-3,4-dihydroxytetrahydrofuran-2-yl)methoxy)-1-(2-ethoxy-2-oxoethoxy)-3-methoxypropan-2-yl)phosphonic acid]"
3,7.00 to 9.00,"O=P(O)(O)C(CO)(CO)OC[C@H]1O[C@@H](c2ccc3c(NCc4ccccc4Cl)nc(Cl)nn23)[C@H](O)[C@@H]1O [Example 27, (2-(((2R,3S,4R,5S)-5-(2-chloro-4-((2-chlorobenzyl)amino)pyrrolo[2,1-f][1,2,4]triazin-7-yl)-3,4-dihydroxytetrahydrofuran-2-yl)methoxy)-1,3-dihydroxypropan-2-yl)phosphonic acid]"
4,≥ 9.30,"O=P(O)(O)C(COCc1nnn[nH]1)(COCc1nnn[nH]1)OC[C@H]1O[C@@H](c2ccc3c(NC4CCCC4)nc(Cl)nn23)[C@H](O)[C@@H]1O [Example 28, (1,3-bis((1H-tetrazol-5-yl)methoxy)-2-(((2R,3S,4R,5S)-5-(2-chloro-4-(cyclopentylamino)pyrrolo[2,1-f][1,2,4]triazin-7-yl)-3,4-dihydroxytetrahydrofuran-2-yl)methoxy)propan-2-yl)phosphonic acid]"
5,6.00 to 7.00,"C[C@@]1(c2ccc3c(NC4CCCC4)nc(Cl)nn23)O[C@H](COC(CO)(COCc2nnn[nH]2)P(=O)(O)O)[C@@H](O)[C@H]1O (stereo partly drawn) [Example 29, (1-((1H-tetrazol-5-yl)methoxy)-2-(((2R,3S,4R,5S)-5-(2-chloro-4-(cyclopentylamino)pyrrolo[2,1-f][1,2,4]triazin-7-yl)-3,4-dihydroxy-5-methyltetrahydrofuran-2-yl)methoxy)-3-hydroxypropan-2-yl)phosphonic acid]"
6,≥ 9.30,"COCC(COC)(OC[C@H]1O[C@@H](c2ccc3c(NC4CCCC4)nc(Cl)nn23)[C@H](O)[C@@H]1O)P(=O)(O)O [Example 30, (2-(((2R,3S,4R,5S)-5-(2-chloro-4-(cyclopentylamino)pyrrolo[2,1-f][1,2,4]triazin-7-yl)-3,4-dihydroxytetrahydrofuran-2-yl)methoxy)-1,3-dimethoxypropan-2-yl)phosphonic acid]"
7,7.00 to 9.00,"COC[C@@](C)(OC[C@H]1O[C@@H](c2ccc3c(NC4CCCC4)nc(Cl)nn23)[C@H](O)[C@@H]1O)P(=O)(O)O [Example 31, ((S)-2-(((2R,3S,4R,5S)-5-(2-chloro-4-(cyclopentylamino)pyrrolo[2,1-f][1,2,4]triazin-7-yl)-3,4-dihydroxytetrahydrofuran-2-yl)methoxy)-1-methoxypropan-2-yl)phosphonic acid]"
8,≥ 9.30,"COC[C@](C)(OC[C@H]1O[C@@H](c2ccc3c(NC4CCCC4)nc(Cl)nn23)[C@H](O)[C@@H]1O)P(=O)(O)O [Example 32, ((R)-2-(((2R,3S,4R,5S)-5-(2-chloro-4-(cyclopentylamino)pyrrolo[2,1-f][1,2,4]triazin-7-yl)-3,4-dihydroxytetrahydrofuran-2-yl)methoxy)-1-methoxypropan-2-yl)phosphonic acid]"
9,7.00 to 9.00,"C[C@](CO)(OC[C@H]1O[C@@H](c2ccc3c(NC4CCCC4)nc(Cl)nn23)[C@H](O)[C@@H]1O)P(=O)(O)O [Example 33, ((S)-2-(((2R,3S,4R,5S)-5-(2-chloro-4-(cyclopentylamino)pyrrolo[2,1-f][1,2,4]triazin-7-yl)-3,4-dihydroxytetrahydrofuran-2-yl)methoxy)-1-hydroxypropan-2-yl)phosphonic acid]"
10,9.00 to 9.30,"C[C@@](CO)(OC[C@H]1O[C@@H](c2ccc3c(NC4CCCC4)nc(Cl)nn23)[C@H](O)[C@@H]1O)P(=O)(O)O [Example 34, ((R)-2-(((2R,3S,4R,5S)-5-(2-chloro-4-(cyclopentylamino)pyrrolo[2,1-f][1,2,4]triazin-7-yl)-3,4-dihydroxytetrahydrofuran-2-yl)methoxy)-1-hydroxypropan-2-yl)phosphonic acid]"
11,≥ 9.30,"O=P(O)(O)[C@](COCc1nn[nH]n1)(COCC1CC1)OC[C@H]1O[C@@H](c2ccc3c(NC4CCCC4)nc(Cl)nn23)[C@H](O)[C@@H]1O [Example 35, ((S)-1-((2H-tetrazol-5-yl)methoxy)-2-(((2R,3S,4R,5S)-5-(2-chloro-4-(cyclopentylamino)pyrrolo[2,1-f][1,2,4]triazin-7-yl)-3,4-dihydroxytetrahydrofuran-2-yl)methoxy)-3-(cyclopropylmethoxy)propan-2-yl)phosphonic acid]"
12,6.00 to 7.00,"C[C@@]1(c2ccc3c(NC4CCCC4)nc(Cl)nn23)O[C@H](CO[C@@](CO)(COCc2nn[nH]n2)P(=O)(O)O)[C@@H](O)[C@H]1O [Example 36, ((R)-1-((2H-tetrazol-5-yl)methoxy)-2-(((2R,3S,4R,5S)-5-(2-chloro-4-(cyclopentylamino)pyrrolo[2,1-f][1,2,4]triazin-7-yl)-3,4-dihydroxy-5-methyltetrahydrofuran-2-yl)methoxy)-3-hydroxypropan-2-yl)phosphonic acid]"
13,6.00 to 7.00,"C[C@@]1(c2ccc3c(NC4CCCC4)nc(Cl)nn23)O[C@H](CO[C@](CO)(COCc2nn[nH]n2)P(=O)(O)O)[C@@H](O)[C@H]1O [Example 37, ((S)-1-((2H-tetrazol-5-yl)methoxy)-2-(((2R,3S,4R,5S)-5-(2-chloro-4-(cyclopentylamino)pyrrolo[2,1-f][1,2,4]triazin-7-yl)-3,4-dihydroxy-5-methyltetrahydrofuran-2-yl)methoxy)-3-hydroxypropan-2-yl)phosphonic acid]"
14,≥ 9.30,O=P(O)(O)C(CO)(COCc1nnn[nH]1)OC[C@H]1O[C@@H](c2cnn3c(NC4CCCC4)cc(Cl)nc23)[C@H](O)[C@@H]1O (stereo partly shown) [Example 38]
15,≥ 9.30,"O=P(O)(O)C(CO)(COCc1nnn[nH]1)OC[C@H]1O[C@@H](c2ccc3c(NCC4CCC4)nc(Cl)nn23)[C@H](O)[C@@H]1O (stereo partly drawn) [Example 39, (1-((1H-tetrazol-5-yl)methoxy)-2-(((2R,3S,4R,5S)-5-(2-chloro-4-((cyclobutylmethyl)amino)pyrrolo[2,1-f][1,2,4]triazin-7-yl)-3,4-dihydroxytetrahydrofuran-2-yl)methoxy)-3-hydroxypropan-2-yl)phosphonic acid]"
16,≥ 9.30,"O=P(O)(O)[C@](CO)(COCc1nn[nH]n1)OC[C@H]1O[C@@H](c2ccc3c(N[C@@H]4CCc5ccccc54)nc(Cl)nn23)[C@H](O)[C@@H]1O [Example 40, ((R)-1-((2H-tetrazol-5-yl)methoxy)-2-(((2R,3S,4R,5S)-5-(2-chloro-4-(((R)-2,3-dihydro-1H-inden-l-yl)amino)pyrrolo[2,1-f][1,2,4]triazin-7-yl)-3,4-dihydroxytetrahydrofuran-2-yl)methoxy)-3-hydroxypropan-2-yl)phosphonic acid]"
17,≥ 9.30,"O=P(O)(O)[C@@](CO)(COCc1nn[nH]n1)OC[C@H]1O[C@@H](c2ccc3c(N[C@@H]4CCc5ccccc54)nc(Cl)nn23)[C@H](O)[C@@H]1O [Example 41, ((S)-1-((2H-tetrazol-5-yl)methoxy)-2-(((2R,3S,4R,5S)-5-(2-chloro-4-(((R)-2,3-dihydro-1H-inden-l-yl)amino)pyrrolo[2,1-f][1,2,4]triazin-7-yl)-3,4-dihydroxytetrahydrofuran-2-yl)methoxy)-3-hydroxypropan-2-yl)phosphonic acid]"
18,≥ 9.30,"COC[C@@](OC[C@H]1O[C@@H](c2ccc3c(NC4CCCC4)nc(Cl)nn23)[C@H](O)[C@@H]1O)(C(=O)O)P(=O)(O)O [Example 42, (S)-2-(((2R,3 S,4R,5S)-5-(2-chloro-4-(cyclopentylamino)pyrrolo[2,1-f][1,2,4]triazin-7-yl)-3,4-dihydroxytetrahydrofuran-2-yl)methoxy)-3-methoxy-2-phosphonopropanoic acid]"
19,7.00 to 9.00,"O=P(O)(O)C(CO)(COCc1nnn[nH]1)OC[C@H]1O[C@H](c2cnn3c(NC4CCCC4)cc(Cl)nc23)[C@H](O)[C@@H]1O (stereo partly drawn) [Example 43, (1-((1H-tetrazol-5-yl)methoxy)-2-(((2R,3S,4R,5R)-5-(5-chloro-7-(cyclopentylamino)pyrazolo[1,5-a]pyrimidin-3-yl)-3,4-dihydroxytetrahydrofuran-2-yl)methoxy)-3-hydroxypropan-2-yl)phosphonic acid]"
